According to patent publication EP0142732B1, “Pheophorbide derivatives and pharmaceutical preparations containing them” (TOYO HAKKA KOGYO KABUSHIKI KAISHA, priority 1983, dated 1985):

Each compound was assayed on leukemic Molt 4 Cell (assay: Biochemiluminescence by single photoncounter system after laser irradiation (destruction of cancer cells)). Details: Homo sapiens, 100 µg/2 ml, incubated 24 hours at 37°C, He-Ne laser 630 nm, 10 min, 20 mW, read-out: cancer cells destroyed.
Format: cell-based
Description: Sodium 9-desoxo-9-hydroxy pheophorbide dissolved in physiological saline of respective concentrations (25 µg/2 ml, 50 µg/2 ml, […]) was added to leukemic Molt 4 Cell ([…] Cells) and the resultant product was incubated for 24 hours at 37°C.
Each incubated cell thus obtained was irradiated with laser (He-Ne gas, 630 nm, 10 min, 20 mW) and trace biochemiluminescence was measured by single photoncounter system.
Intensity of biochemiluminescence substantially correponds to the degree of destructive effect on cancer cells and thus by studying the biochemiluminescence by single photoncounter system, it is possible to predict the destructive effect on cancer cells.
Leukemic Molt 4 cell ([…] cells) was added with physiological saline containing sodium 2- desethenyl-2-(1-hydroxyethyl) pheophorbide (sodium salt of (2)) in respective concentrations ([…], 100 µg/2 ml) and then incubated (37°C, 24 hours). Incubated cells each were irradiated with laser ([…], 630 nm, 10 min, 20 mW) to investigate generation of biochemiluminescence by single photoncounter system by measuring biochemiluminescence; The intensity of biochemiluminescence by single photoncounter system substantially corresponds to the degree of destruction of the cancer cells. […]

`CCC1=C(C)c2cc3[nH]c(cc4nc(c5c6[nH]c(cc1n2)c(C)c6C(=O)C5C(=O)OC)C(CCC(=O)O)C4C)c(C)c3C(C)O` (stereo not shown) [2-desethenyl-2-(1-hydroxyethyl)-pheophorbide] and `C=Cc1c(C)c2cc3nc(c4c5[nH]c(cc6nc(cc1[nH]2)C(C)=C6CC)c(C)c5C(O)C4C(=O)OC)C(CCC(=O)O)C3C` (stereo not shown) [9-Desoxo-9-hydroxy-pheophorbate (11), 9-desoxo-9-hydroxy-pheophorbide] cannot be ordered by cytotoxicity at 50 µg/mL: over 95% for the first, over 95% for the second.

What follows are compounds tested on nitrosamine-induced cancer cells of the pancreas (assay: N2 pulsed laser spectro-fluorometry of removed organs after administration to tumour-bearing hamsters). Details: 24 hours after administration; 5 mg in 1 ml physiological saline.
Format: in vivo, golden hamsters
Description: Five mg of the test drug sodium 9-desoxo-9-hydroxy pheophorbide diluted in physiological saline (1 ml) was administered (1 ml) to golden hamsters (5 each for a group) 14-21 days after transplantation of nitrosamine-induced cancer cells of the pancreas, after which cancer cells and other organs were removed. N2-pulsed laser (N2 337 nm, 2 ns 400-1000 nm) was irradiated to each organ thus obtained to measure N2 pulsed laser spectro-fluorometry.
N2 pulsed laser spectro-fluorometry of each removed organ was measured 24 hours and 48 hours afterwards to investigate the wavelengths of 600 to 900 nm based on the peak wavelengths of NADH of 470 nm.
Golden hamsters (5 per one group) 14-21 days after transplantation of nitrosamine-induced cancer cells of the pancreas were administered 5 mg each of sodium 2-desethenyl-2-(1-hydroxyethyl) pheophorbide (sodium salt of (2)), sodium 2-desethynyl-2-(1-hydroxyethyl)-9-desoxo-9-hydroxy pheophorbide (sodium salt (3)), sodium 2-desethenyl-2-(1-acetyloxyethyl)-9-desoxo-9-acetyloxy pheophorbide (sodium salt of (4)), sodium ethylene glycol mono-10b-pheophorbate (sodium salt of (8)), disodium ethylene glycol di-10b-pheophorbate (sodium salt of (10)) and sodium N-phenylalanine 10b-methyl pheophorbid amide (sodium salt of (9)) respectively diluted with physiological saline (1 ml). Cancer cells and other organs were removed, irradiated with N2-pulsed laser (N2, 337 nm, 2 ns 400-1000 nm) to measure N2 pulsed laser spectro fluorometry. Using the. NADH peak wavelength of 470 nm as the reference, wavelengths in the range of from 600-900 nm were studied.
Various organs were removed 24 hours after administration and their N2 pulsed laser spectro-fluorometry was measured.

With `C=Cc1c(C)c2cc3nc(c4c5[nH]c(cc6nc(cc1[nH]2)C(C)=C6CC)c(C)c5C(O)C4C(=O)OC)C(CCC(=O)O)C3C` (stereo not shown) [9-Desoxo-9-hydroxy-pheophorbate (11), 9-desoxo-9-hydroxy-pheophorbide] the “accumulation in cancer cells and other organs (N2 pulsed laser spectro-fluorometry)” value was “generally found in organs”.

Same assay, conditions: 48 hours after administration; 5 mg in 1 ml physiological saline

`C=Cc1c(C)c2cc3nc(c4c5[nH]c(cc6nc(cc1[nH]2)C(C)=C6CC)c(C)c5C(O)C4C(=O)OC)C(CCC(=O)O)C3C` (stereo not shown) [9-Desoxo-9-hydroxy-pheophorbate (11), 9-desoxo-9-hydroxy-pheophorbide] was tested, and the “accumulation in cancer cells and other organs (N2 pulsed laser spectro-fluorometry)” value was “markedly accumulated in cancer cells alone but not in other cells”.

Same assay, conditions: sodium compounds; organs removed 24 hours after administration; N2 337 nm laser, 600-900 nm

First: 9-Desoxo-9-hydroxy-pheophorbide C
Second: CCC1=C(C)c2cc3[nH]c(cc4nc(c5c6[nH]c(cc1n2)c(C)c6C(OC(C)=O)C5C(=O)OC)C(CCC(=O)O)C4C)c(C)c3C(C)OC(C)=O (stereo not shown) [2-Desethenyl-2-(1-acetyloxyethyl)-9-desoxo-9-acetyloxypheophorbide]
The “N2 pulsed laser spectro-fluorometry, wavelengths calculated using the NADH peak wavelength of 470 nm as the reference” value of the first is lower: 0.32 for the first, 0.48 for the second.

First: CCC1=C(C)c2cc3[nH]c(cc4nc(c5c6[nH]c(cc1n2)c(C)c6C(O)C5C(=O)OC)C(CCC(=O)O)C4C)c(C)c3C(C)OC(C)=O (stereo not shown) [2-Desethenyl-2-(1-acetyloxyethyl)-9-desoxo-9-hydroxy-pheophorbide]
Second: CCC1=C(C)c2cc3[nH]c(cc4nc(c5c6[nH]c(cc1n2)c(C)c6C(O)C5C(=O)OC)C(CCC(=O)O)C4C)c(C)c3C(C)O (stereo not shown) [2-desethenyl-2-(1-hydroxyethyl)-9-desoxo-9-hydroxy-pheophorbide]
The “N2 pulsed laser spectro-fluorometry, wavelengths calculated using the NADH peak wavelength of 470 nm as the reference” value of the first is lower: 0.95 for the first, 3.13 for the second.

Compared with `CCC1=C(C)c2cc3[nH]c(cc4nc(c5c6[nH]c(cc1n2)c(C)c6C(=O)C5C(=O)OC)C(CCC(=O)O)C4C)c(C)c3C(C)O` (stereo not shown) [2-desethenyl-2-(1-hydroxyethyl)-pheophorbide], `C=Cc1c(C)c2cc3nc(c4c5[nH]c(cc6nc(cc1[nH]2)C(C)=C6CC)c(C)c5C(OC(C)=O)C4C(=O)OC)C(CCC(=O)O)C3C` (stereo not shown) [9-Desoxo-9-acetyloxy-pheophorbide, 9-desoxo-9-acetyloxy-pheophorbide] is lower in “N2 pulsed laser spectro-fluorometry, wavelengths calculated using the NADH peak wavelength of 470 nm as the reference” value: 1.90 for the first, 0.89 for the second.

Compared with `C=Cc1c(C)c2cc3nc(c4c5[nH]c(cc6nc(cc1[nH]2)C(C)=C6CC)c(C)c5C(O)C4C(=O)OC)C(CCC(=O)O)C3C` (stereo not shown) [9-Desoxo-9-hydroxy-pheophorbate (11), 9-desoxo-9-hydroxy-pheophorbide], `C=Cc1c(C)c2cc3nc(c4c5[nH]c(cc6nc(cc1[nH]2)C(C)=C6CC)c(C)c5C(O)C4)C(CCC(=O)O)C3C` (stereo not shown) [9-Desoxo-9-hydroxy-pyropheophorbide] is higher in “N2 pulsed laser spectro-fluorometry, wavelengths calculated using the NADH peak wavelength of 470 nm as the reference” value: 0.93 for the first, 0.98 for the second.

First: C=Cc1c(C)c2cc3nc(c4c5[nH]c(cc6nc(cc1[nH]2)C(C)=C6CC)c(C)c5C(O)C4C(=O)OCCOC(=O)C1c2c4nc(cc5[nH]c(cc6nc(cc7[nH]c2c(c7C)C1O)C(CC)=C6C)c(C=C)c5C)C(C)C4CCC(=O)O)C(CCC(=O)O)C3C (stereo not shown) [Ethylene glycol di-10b-9-desoxo-9-hydroxypheophorbate]
Second: C=Cc1c(C)c2cc3nc(c4c5[nH]c(cc6nc(cc1[nH]2)C(C)=C6CC)c(C)c5C(=O)C4C(=O)OCCOC(=O)C1C(=O)c2c(C)c4cc5nc(cc6[nH]c(cc7nc(c1c2[nH]4)C(CCC(=O)O)C7C)c(C)c6C=C)C(C)=C5CC)C(CCC(=O)O)C3C (stereo not shown) [Ethylene glycol di-10b-pheophorbate (10), ethylene glycol di-10b-pheophorbate]
The “N2 pulsed laser spectro-fluorometry, wavelengths calculated using the NADH peak wavelength of 470 nm as the reference” value of the first is lower: 2.50 for the first, 2.78 for the second.

Going from `C=Cc1c(C)c2cc3nc(c4c5[nH]c(cc6nc(cc1[nH]2)C(C)=C6CC)c(C)c5C(O)C4C(=O)OCCO)C(CCC(=O)O)C3C` (stereo not shown) [Ethylene glycol mono-10b-9-desoxo-9-hydroxy-pheophorbate] to `C=Cc1c(C)c2cc3nc(c4c5[nH]c(cc6nc(cc1[nH]2)C(C)=C6CC)c(C)c5C(=O)C4C(=O)OCCOC(C)=O)C(CCC(=O)O)C3C` (stereo not shown) [Monoacetylethylene glycol mono-10b-pheophorbate], the “N2 pulsed laser spectro-fluorometry, wavelengths calculated using the NADH peak wavelength of 470 nm as the reference” value falls from 2.10 to 1.30.

First: C=Cc1c(C)c2cc3nc(c4c5[nH]c(cc6nc(cc1[nH]2)C(C)=C6CC)c(C)c5C(O)C4C(=O)NC(Cc1ccccc1)C(=O)O)C(CCC(=O)OC)C3C (stereo not shown) [N-Phenylalanine 10b-9-desoxo-9-hydroxy-methylpheophorbidamide]
Second: C=Cc1c(C)c2cc3nc(c4c5[nH]c(cc6nc(cc1[nH]2)C(C)=C6CC)c(C)c5C(=O)C4C(=O)NC(Cc1ccccc1)C(=O)O)C(CCC(=O)OC)C3C (stereo not shown) [N-phenylalanine 10b-methylpheophorbidamide]
The “N2 pulsed laser spectro-fluorometry, wavelengths calculated using the NADH peak wavelength of 470 nm as the reference” value of the first is lower: 0.73 for the first, 0.75 for the second.

First: C=Cc1c(C)c2cc3nc(c4c5[nH]c(cc6nc(cc1[nH]2)C(C)=C6CC)c(C)c5C(=O)C4C(=O)OC)C(CCC(=O)O)C3C (stereo not shown) [Pheophorbide (1), pheophorbide]
Second: C=Cc1c(C)c2cc3nc(c4c5[nH]c(cc6nc(cc1[nH]2)C(C)=C6CC)c(C)c5C(=O)C4)C(CCC(=O)O)C3C (stereo not shown) [Pyropheophorbide, reference compound]
The “N2 pulsed laser spectro-fluorometry, wavelengths calculated using the NADH peak wavelength of 470 nm as the reference” value of the first is higher: 0.78 for the first, 0.25 for the second.

First: C=Cc1c(C)c2cc3nc(c4c5[nH]c(cc6nc(cc1[nH]2)C(C)=C6CC)c(C)c5C(=O)C4C(=O)OCCO)C(CCC(=O)O)C3C (stereo not shown) [ethylene glycol mono-10b-pheophorbate]
Second: Ethylene glycol di-10b-2-desethenyl-2-(1-hydroxyethyl)-9-desoxo-9-hydroxy-pheophorbate
The “N2 pulsed laser spectro-fluorometry, wavelengths calculated using the NADH peak wavelength of 470 nm as the reference” value of the first is lower: 1.72 for the first, 1.80 for the second.

First: Ethylene glycol di-10b-2-desethenyl-2-(1-hydroxyethyl)-pheophorbate
Second: Monoacetylethylene glycol mono-10b-9-desoxo-9-acetyloxy-pheophorbate
The “N2 pulsed laser spectro-fluorometry, wavelengths calculated using the NADH peak wavelength of 470 nm as the reference” value of the first is higher: 2.50 for the first, 0.85 for the second.

For “Monoacetylethylene glycol mono-10b-9-desoxo-9-hydroxy-pheophorbate”, the “N2 pulsed laser spectro-fluorometry, wavelengths calculated using the NADH peak wavelength of 470 nm as the reference” value was 1.20.
